According to PubChem BioAssay AID2202554 (NIEHS Division of Translational Toxicology (DTT)):
Inconclusive results are not listed. Calls of active or inactive are those of the source. The rule behind the calls is not given here.

Tested on: S. typhimurium/E. coli reverse mutation, colony counts
Test: Bacterial reverse mutation test (aka Ames test) summary data
Procedure, shortened: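 Revertant colony counts on plates, compared with untreated controls, after about two days of growth. Exposure with or without liver S9 (rat/hamster/mouse), dose range per strain, 20-min 37° C preincubation or direct plate incorporation. Strains: his⁻ Salmonella, trp⁻ E. coli WP2 uvrA pKM101.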

Row | SMILES | outcome
1 | CCCCCC(=O)OCC | inactive; negative
2 | CC/C(=C(/CC)c1ccc(O)cc1)c1ccc(O)cc1 | inactive; negative
3 | Cc1ccccc1C(=O)O | inactive; negative
4 | CCCc1cc(=O)[nH]c(=S)[nH]1 | inactive; negative
5 | N[C@@H](Cc1ccc(N(CCCl)CCCl)cc1)C(=O)O | active; positive
6 | Oc1ccc(Cl)cc1Sc1cc(Cl)ccc1O | inactive; negative
7 | C=C(C)C(=O)OCCC | inactive; negative
8 | COc1ccc([N+](=O)[O-])cc1N | active; positive
9 | Clc1ccccn1 | active; positive
10 | CC1=NN(c2ccccc2)C(=O)C1 | inactive; negative
11 | CC(C)(c1cc(Br)c(O)c(Br)c1)c1cc(Br)c(O)c(Br)c1 | inactive; negative
12 | CON | inactive; negative
13 | O=C(Cl)c1ccccc1[N+](=O)[O-] | active; positive
14 | CC(=O)Nc1cccc(C)c1 | inactive; negative
15 | CC(=O)OC(C)=O | inactive; negative
16 | CCOc1ccc(N=Nc2ccc(-c3ccc(N=Nc4c(O)ccc5cc(S(=O)(=O)O)cc(S(=O)(=O)O)c45)c(C)c3)cc2C)cc1 | inactive; negative
17 | Cn1c(-c2ccccc2)c(N=Nc2scc[n+]2C)c2ccccc21 | active; positive
18 | O=C1OC2(c3ccc(O)cc3Oc3cc(O)ccc32)c2ccccc21 | inactive; negative
19 | ClC1=C(Cl)C2(Cl)C3C(Cl)C=CC3C1(Cl)C2(Cl)Cl (stereo not drawn) | inactive; negative
20 | O=Cc1ccccc1 | inactive; negative
21 | C[N+](C)(C)CCO | inactive; negative
22 | Cc1ccccc1N=Nc1c(O)ccc2ccccc12 | active; positive
23 | Nc1ccc(Nc2ccccc2)cc1 | inactive; negative
24 | C1CN(CCOCCN2CCOCC2)CCO1 | inactive; negative
25 | O=[N+]([O-])C(Br)=Cc1ccccc1 | active; positive
26 | O=C1CCc2ccccc2O1 | inactive; negative

Row | SMILES | outcome
27 | CNN | inactive; negative
28 | Nc1nccs1 | active; positive
29 | O=[N+]([O-])c1cc(Cl)c(Cl)c(Cl)c1Cl | inactive; negative
30 | CN1CCC[C@H]1c1cccnc1 | inactive; negative
31 | CN(Cc1cnc2nc(N)nc(N)c2n1)c1c(Cl)cc(C(=O)N[C@@H](CCC(=O)O)C(=O)O)cc1Cl | active; weakly positive
32 | c1ccc2[nH]cnc2c1 | inactive; negative
33 | CC(C)(C)OCC1CO1 (stereo not drawn) | active; positive
34 | NC(=O)NO | inactive; negative
35 | ClCCOCCCl | active; weakly positive
36 | c1ccoc1 | active; weakly positive
37 | C=CCNC(N)=O | active; positive
38 | Oc1c(Br)cc(Br)cc1Br | inactive; negative
39 | CC(C)(Cl)Cl | inactive; negative
40 | OC(c1ccc(Cl)cc1)(c1ccc(Cl)cc1)C(Cl)(Cl)Cl | inactive; negative
41 | O=C1NS(=O)(=O)c2ccccc21 | inactive; negative
42 | CC(=O)OCc1ccco1 | active; positive
43 | CCc1c(Br)c(Br)c(Br)c(Br)c1Br | inactive; negative
44 | OCCBr | active; positive
45 | c1cc2c3c(c1)ccc1cccc(c13)C2 | active; positive
46 | Clc1ccc(Cl)c(Cl)c1 | inactive; negative
47 | COc1ccc(C(=O)Nc2ccccc2)cc1[N+](=O)[O-] | active; positive
48 | COC(=O)Nc1cccc(OC(=O)Nc2cccc(C)c2)c1 | active; positive
49 | CCC(C(N)=O)(C(N)=O)c1ccccc1 | active; weakly positive
50 | Cc1ccc(C(C)(C)C)cc1 | inactive; negative
51 | Nc1ccc(-c2ccc(N)cc2)cc1 | active; positive
52 | Cc1ccccc1C | inactive; negative

Row | SMILES | outcome
53 | CCN1CCOCC1 | active; weakly positive
54 | CCCCOCCOCCO | inactive; negative
55 | Cc1ccc2ccccc2c1 | inactive; negative
56 | c1ccc2c(c1)Oc1ccccc1S2 | inactive; negative
57 | COc1cc(-c2ccc(N=Nc3cc(S(=O)(=O)O)c4ccccc4c3O)c(OC)c2)ccc1N=Nc1cc(S(=O)(=O)O)c2ccccc2c1O | inactive; negative
58 | [O]=[Zr] | inactive; negative
59 | C[C@H](Cn1cnc2c(N)ncnc21)OCP(=O)(O)O | active; positive
60 | NCP(=O)(O)O | inactive; negative
61 | COCCOC(C)=O | active; weakly positive
62 | CC(O)CN(C)C (stereo not drawn) | inactive; negative
63 | C=CC(=O)O | inactive; negative
64 | CC1=CC(=O)CC(C)(C)[C@@]1(O)/C=C/C(C)=C\C(=O)O | inactive; negative
65 | Cc1ccc(O)c(C)c1 | active; weakly positive
66 | CCCCOC(=O)c1ccccc1C(=O)OCc1ccccc1 | inactive; negative
67 | CCOP(=O)(NC(C)C)Oc1ccc(SC)c(C)c1 (stereo not drawn) | inactive; negative
68 | O=C1Nc2ccc(S(=O)(=O)O)cc2C1=O | active; positive
69 | C[Si](C)(C)Cl | active; weakly positive
70 | ClC1=C(Cl)[C@]2(Cl)[C@H]3[C@H]([C@@H]4C=C[C@H]3C4)[C@@]1(Cl)C2(Cl)Cl | inactive; negative
71 | O=C1c2c(Br)c(Br)c(Br)c(Br)c2C(=O)N1CCN1C(=O)c2c(Br)c(Br)c(Br)c(Br)c2C1=O | inactive; negative
72 | CC(C)(C#N)C(C)(C)C#N | inactive; negative
73 | CC(C)C(C)C | inactive; negative
74 | CC(=O)Nc1ccc(O)cc1 | inactive; negative
75 | O=C(Nc1ccccc1)c1cc2ccccc2c(N=Nc2cc(Cl)ccc2Cl)c1O | active; weakly positive
76 | C=CCOCC1CO1 (stereo not drawn) | active; positive
77 | COC(C)=O | inactive; negative
78 | CN(C)CCCN | inactive; negative

Row | SMILES | outcome
79 | CCCCC(C=O)CC (stereo not drawn) | inactive; negative
80 | COC(F)(F)C(Cl)Cl | inactive; negative
81 | Cc1cc(C)cc(N)c1 | active; weakly positive
82 | CC(C)=O | inactive; negative
83 | CCC(CO)[N+](=O)[O-] (stereo not drawn) | inactive; negative
84 | CC(Cl)CN(C)C (stereo not drawn) | active; positive
85 | CC=CC=O | active; positive
86 | ClCCCCl | active; positive
87 | Nc1ccc(Cc2ccc(N)cc2)cc1 | active; positive
88 | O=P(OC(CCl)CCl)(OC(CCl)CCl)OC(CCl)CCl | active; positive
89 | NCCNCCO | active; weakly positive
90 | CCOC(=O)CBr | active; positive
91 | CC(O)CCl (stereo not drawn) | active; positive
92 | Cc1ccc(Cl)cc1N | inactive; negative
93 | Cc1ccc(N)cc1O | active; positive
94 | NC(=NCCCCCCN=C(N)/N=C(\N)Nc1ccc(Cl)cc1)/N=C(\N)Nc1ccc(Cl)cc1 | inactive; negative
95 | CCCCCCCCOc1ccc(C(=O)O)cc1 | inactive; negative
96 | C=CC(=O)CC | active; positive
97 | CCCC[N+]1(C)CCCC1 | inactive; negative
98 | Nc1c(Cl)cc([N+](=O)[O-])cc1Cl | active; positive
99 | Cc1cccc2cccnc12 | active; positive
100 | CCOc1ccc2c(c1)C(C)=CC(C)(C)N2 | inactive; negative
101 | C[C@@H]1[C@H](O)[C@@H](C)/C=C/C=C/C=C/C=C/C=C/C=C/C=C/[C@H](O[C@@H]2O[C@H](C)[C@@H](O)[C@H](N)[C@@H]2O)C[C@@H]2O[C@](O)(C[C@@H](O)C[C@@H](O)[C@H](O)CC[C@@H](O)C[C@@H](O)CC(=O)O[C@H]1C)C[C@H](O)[C@H]2C(=O)O | inactive; negative
102 | C=CC(=O)OCC(CO)(COCC(COC(=O)C=C)(COC(=O)C=C)COC(=O)C=C)COC(=O)C=C | inactive; negative
103 | Nc1cccc(N)c1 | active; positive
104 | CCCCCCOc1ccc(O)cc1 | inactive; negative

Row | SMILES | outcome
105 | Nc1c2ccccc2nc2ccccc12 | active; positive
106 | Nc1ccc(N)c(Cl)c1 | active; positive
107 | c1cnc2c(c1)ccc1cccnc12 | inactive; negative
108 | OCCCCl | active; positive
109 | CC1CC(=O)O1 (stereo not drawn) | active; positive
110 | CCCNC(C)C(=O)Nc1ccccc1C (stereo not drawn) | inactive; negative
111 | Clc1ccc(Cl)c(Cl)c1Cl | inactive; negative
112 | CNC(=S)N(C)C | inactive; negative
113 | c1ccc2cc(Nc3ccc(Nc4ccc5ccccc5c4)cc3)ccc2c1 | active; positive
114 | CC(CCC(=O)O)(c1ccc(O)cc1)c1ccc(O)cc1 | inactive; negative
115 | CCC(Br)(CC)C(=O)NC(N)=O | inactive; negative
116 | Cc1cc(C)c(C)c(C)c1 | inactive; negative
117 | O=C1NC(=O)C(c2ccccc2)(c2ccccc2)N1 | inactive; negative
118 | Cc1cccc(C#N)c1 | inactive; negative
119 | CC#N | inactive; negative
120 | O=[N+]([O-])c1cccc(O)c1 | active; weakly positive
121 | O=S(=O)(O)c1cc(N=Nc2c(O)ccc3ccccc23)ccc1-c1ccc(N=Nc2c(O)ccc3ccccc23)cc1S(=O)(=O)O | inactive; negative
122 | O=C(O)C(F)(F)C(F)(F)C(F)(F)C(F)(F)C(F)(F)C(F)(F)C(F)(F)C(F)(F)C(F)(F)C(F)(F)C(F)(F)F | inactive; negative
123 | Cc1cnc[nH]1 | inactive; negative
124 | Cc1c(C(=O)O)c(O)cc2c1C(=O)c1c(O)c([C@@H]3O[C@H](CO)[C@@H](O)[C@H](O)[C@H]3O)c(O)c(O)c1C2=O | active; weakly positive
125 | O=C(O)C(Br)(Br)Br | active; positive
126 | CCN(CC)c1ccc(N=O)c(O)c1 | inactive; negative
127 | O=C(O)CC(C(=O)O)C(CC(=O)O)C(=O)O (stereo not drawn) | active; positive
128 | COCCOCCOCCOC | active; positive
